PMC4078008, “Exploring metabolic engineering design principles for the photosynthetic production of lactic acid by Synechocystis sp. PCC6803” (Biotechnology for Biofuels, 2014)

Assays:
[1] = target: T1, PK-F of E. coli (Escherichia coli, UniProt P0AD61); assay: LDH-coupled PK assay in cell-free extract with and without FBP; format: biochemical; details: activator; 3 mM FBP, 50 mM Tris-HCl pH 7.6, 5 mM MgCl2, 100 mM KCl, 0.6 mM ADP, 5 mM PEP, 30 °C
T1 construct: gene pykF; codon-optimized gene expressed in Synechocystis sp; PCC6803 (strain SYW004); cell-free extract
T1 sequence (P0AD61 whole entry): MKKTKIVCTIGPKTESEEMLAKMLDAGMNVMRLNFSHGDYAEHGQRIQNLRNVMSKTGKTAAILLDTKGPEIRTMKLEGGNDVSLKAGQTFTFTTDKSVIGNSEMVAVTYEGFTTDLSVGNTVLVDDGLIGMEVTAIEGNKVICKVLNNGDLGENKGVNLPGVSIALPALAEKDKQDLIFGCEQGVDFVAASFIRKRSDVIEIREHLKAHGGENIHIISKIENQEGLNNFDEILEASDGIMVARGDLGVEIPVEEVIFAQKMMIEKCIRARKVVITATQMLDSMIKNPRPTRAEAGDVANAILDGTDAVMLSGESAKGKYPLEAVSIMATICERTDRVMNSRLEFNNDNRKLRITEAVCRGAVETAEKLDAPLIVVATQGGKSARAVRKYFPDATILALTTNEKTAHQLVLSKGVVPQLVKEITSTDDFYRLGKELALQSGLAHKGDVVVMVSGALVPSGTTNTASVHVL

[2] = target: T2, L-LDH of L. lactis (LlLDH) (Lactococcus cremoris, UniProt A2RKA4); assay: NAD(P)H consumption at […] nm in cell-free extract; format: biochemical; details: 100 mM Tris-HCl pH 7.2, 2.5 mM MgCl2, 3 mM FBP, 300 uM NADH, 30 mM pyruvate, 30 °C
T2 construct: full-length, codon-optimized gene expressed in Synechocystis sp; PCC6803; cell-free extract
T2 sequence (A2RKA4 1-325): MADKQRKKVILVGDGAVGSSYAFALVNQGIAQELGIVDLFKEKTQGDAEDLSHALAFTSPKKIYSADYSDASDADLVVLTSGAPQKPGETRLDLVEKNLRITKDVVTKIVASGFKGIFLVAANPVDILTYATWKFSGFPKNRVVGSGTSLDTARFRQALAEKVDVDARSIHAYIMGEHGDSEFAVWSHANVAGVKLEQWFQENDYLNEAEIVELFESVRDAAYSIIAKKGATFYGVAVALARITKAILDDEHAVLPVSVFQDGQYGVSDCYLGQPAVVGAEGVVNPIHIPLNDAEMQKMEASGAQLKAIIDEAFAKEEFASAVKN

Structure (SMILES)	relative activity with and without FBP [1]	relative activity [2]
O=P(O)(O)OC[C@H]1OC(O)(COP(=O)(O)O)[C@@H](O)[C@@H]1O (some centres unmarked) [FBP]	The activity assays confirmed the FBP dependency of the selected PK-F enzymes	
NC(=O)C1=CN([C@@H]2O[C@H](COP(=O)(O)OP(=O)(O)OC[C@H]3O[C@@H](n4cnc5c(N)ncnc54)[C@H](O)[C@@H]3O)[C@@H](O)[C@H]2O)C=CC1 [NADH]		Both show similar activity for NADH (Figure 5C) and similar expression levels
